Data from patent US20030166721A1, “Choline derivative for the treatment of alzheimer's disease” (priority 2000, published 2003).

Tests used:
Assay type in all cases: in vivo, rat
[1] = test system: Wistar rats; test: EEG spectral qualitative and quantitative analysis in freely moving rats after i.p. administration
Procedure: Young male Wistar rats (200-260) were used in the experiments, housed in a standard temperature and humidity conditions, with food and water ad libitum. […] After surgery all animals were housed 48 h to allow a complete recovery. 48 Hours after electrode implantation, the animals, placed in a transparent box and freely moving, were connected with an electroencephalograph and the electrocortical activity was continuously monitored and recorded. […] Qualitative and quantitative analysis on the electrocortical activity EEG recording was subsequently carried out. The animals were divided in 4 groups, the first group acted as the control, the second received cytidine-5′-diphosphocholine (CDP-choline), the third and fourth received PC-1 and PC-2, respectively (pivaloylcholine iodide and pivaloyleholine trimethylacetate, respectively). The control group received an equal volume of saline solution by the same procedure. […] Statistical analysis was performed by analysis of variance (ANOVA) for multiple measurements followed, if significant, by the post-hoc Tuckey-Kramer test. A comparison between groups was performed to exclude any individual variability.

[2] = test system: Wistar rats; test: Behavioural and EEG effects in rats at different doses
Procedure: Young male Wistar rats (200-260) were used in the experiments, housed in a standard temperature and humidity conditions, with food and water ad libitum.
The animals, anaesthetised with chloral hydrate (400 mg/kg) […], were stereotaxically implanted (Kopft Instruments) with cortical electrodes (n=4) onto the fronto-parietal region of the neocortex on both cerebral hemispheres, to record EEG. After surgery all animals were housed 48 h to allow a complete recovery.
48 Hours after electrode implantation, the animals, placed in a transparent box and freely moving, were connected with an electroencephalograph and the electrocortical activity was continuously monitored and recorded. After a 30 min control time, the compounds under test were intraperitoneally administered and EEG recording was continued for 90-120 min
EEG was recorded by computerised 24-channels apparatus (Vega 24, Galileo type, ESA-OTE Biomedica, Florence, Italy), while the spectrum activity was quantitatively analysed by a Berg Fourier analyser (ESA-OTE Biomedica, Florence, Italy). The total EEG power (0.25-16 Hz range) was divided into 5 variable frequency bands: δ 0.25-3 Hz, θ 3-6; α1 6-9; α2 9-12 and β12-16 Hz.
The EEG patterns and behavioral effects observed in the rat after administration of the choline derivatives and of the vehicle is reported in 5 Tab. 3. Such effects can be ascribed to the changes of EEG spectrum total power. An […] in EEG total power is related with the presence of slow frequency waves (synchronisation), whereas an […] thereof is related with the presence of rapid frequency waves (desynchronisation).

[3] = test system: NBM lesioned rats; test: EEG in rats with unilateral AMPA lesion of Meynert nucleus basalis (NBM)
Procedure: Male Wistar rats (200-250 g), anaesthetised with chloral hydrate (400 mg/kg), were subjected to unilateral lesion of Meynert nucleus basalis (NBM), by intracerebral infusion of α-amino-3-hydroxy-4-isoxazolepropionic acid (AMPA) (1.3 μg/0.5 μl). The animals were divided into four groups, the first two were subjected to NBM lesion; the third was a sham-operated group, and the last was the control group. Two weeks after the lesion, the animals were implanted under general anesthesia, with cortical electrodes (n=4) onto the fronto-parietal region, so as to make it possible, 24 hours later, to record the EEG activity of freely moving animals. EEG activity was continuously monitored and recorded for 60 min by a computerised EEG Berg-Fourier apparatus. Spontaneous activity of the EEG spectrum total power (0.25-16 Hz), as well as that of preselected frequency bands, was recorded for times of 5 min and quantitized (μV).
In order to quantitize AMPA-induced neuronal loss in NBM, coronal serial sections of rat brain were prepared, then stained with toluidine blue to verify the injection site and treated, by immunohistochemical procedure, with 192LR-NGF to quantitize the neuronal loss. Said sections were analysed by a computerized system for image analysis (Axiophoy Zeiss and Vidas Kintron). Statistical analysis of the data from the morphological study was performed by ANOVA followed, if significant, by the post-hoc Tuckey-Kramer test.
In lesioned animals (n=16), with about 45% neuronal loss at the NBM level (FIG. 5), EEG synchronization accompanied with significant increase (P<0.01) in total power (0.25-16 Hz), (170.4±25.8) of EEG spectrum (μV), as well as in higher frequency bands (6-9, 9-12 and 12-16 Hz) (FIG. 7; Tab. 4), was observed. EEG activity of half the NBM lesioned animals was further recorded. After recording the baseline EEG activity, this group of animals was intraperitoneally administered with a PC-1 single dose.

[4] = test system: rats; test: Synergistic effect with tacrine: qEEG of neocortical activity in rats; conditions: n=7
Procedure: Results reported in Table 5 show the synergistic effect of the combination of tacrine with the choline derivatives of the present invention.
Vehicle: 2 ml/Kg; all drugs were administered i.p., PC-1 and PC-2 at corresponding equimolar doses (15 μmol/2 ml/kg^−1); THA (tacrine) (5 mg/kg) was administered 30 min before compounds; atropine (0.1 mg/kg) was injected 15 min before PC-1 and PC-2. The number of animals was 7 per each group. Values represent EEG power (μV/s).

[5] = after i.p. administration, % ± SEM
[6] = i.p. (vol. 0.5 ml), mean ± SEM, 7 tests
[7] = NBM unilaterally lesioned rats + PC-1 (5 mg i.p.), hemisphere ipsilateral to lesion
[8] = rats i.p., PC-1/PC-2 15 μmol/2 ml/kg, THA 5 mg/kg 30 min before, atropine 0.1 mg/kg 15 min before

## CC(C)(C)C(=O)OCC[N+](C)(C)C.[I-] [PC-1, pivaloylcholine iodide]
[1]
  Change of slow EEG spectrum components (FIG. 3): decrease in slow components (delta and theta) of the spectrum
[1]; 5 mg i.p.
  Duration of the decrease in EEG total power: 15 min
  Time to onset of EEG desynchronization and significant decrease in EEG total power: 15 min
[1]; [5]
  EEG frequency band 0.25-3 Hz: 4.3 ± 0.7(*) %
  EEG frequency band 3-6 Hz: 18 ± 0.6(*) %
  EEG frequency band 6-9 Hz: 32.5 ± 1.3%
  EEG frequency band 9-12 Hz: 19.3 ± 0.9%
  EEG frequency band 12-16 Hz: 13 ± 1.0%
[1]; atropine pretreatment
  Effect of atropine given 15 min before the compound: antagonize the effects
[1]; before i.p. injection (vol. 0.5 ml), mean ± SEM, 7 tests
  EEG total power (fronto-parietal cortex), Baseline: 120 ± 2.9
[1]; [6]
  EEG total power (fronto-parietal cortex), 15′: 82 ± 3.6(*)
  EEG total power (fronto-parietal cortex), 30′: 128 ± 3.2
  EEG total power (fronto-parietal cortex), 45′: 110 ± 2.7
  EEG total power (fronto-parietal cortex), 60′: 120 ± 4.3
  EEG total power (fronto-parietal cortex), 75′: 125 ± 3.5
  EEG total power (fronto-parietal cortex), 90′: 127 ± 4
[2]; 1 mg
  Behaviour: Alert response
  EEG Activity (change of EEG total power): Decrease
[2]; 5 mg
  Behaviour: Alert response
  EEG Activity (change of EEG total power): Decrease
[2]; 50 mg
  Behaviour: Convulsions and death (50%)
  EEG Activity (change of EEG total power): Peaks
[3]; NBM lesioned rats (AMPA), 5 mg i.p.
  Effect on EEG spectrum after NBM excitotoxic lesion (FIG. 7): restores both the normal composition of EEG spectrum and the distribution of its frequencies
[3]; NBM lesioned rats, 5 mg i.p.
  Duration of the decrease in ECoG spectrum total power: about 15 min
  Time to onset of alert response, EEG desynchronization and decrease in ECoG total power: ≤ 15 min
[3]; NBM lesioned rats, 5 mg i.p., P<0.05
  Change in 6 rhythm (0.25-3 Hz): significant decrease
[3]; NBM lesioned rats, 5 mg i.p., presumably after PC-1
  ECoG spectrum total power, second value of printed pair: 96±20.3
[3]; NBM lesioned rats, 5 mg i.p., presumably before PC-1
  ECoG spectrum total power, first value of printed pair: 150±19.3
[3]; [7]
  EEG spectrum band 0.25-3 Hz: 3.4%
  EEG spectrum band 3-6 Hz: 33.3%
  EEG spectrum band 6-9 Hz: 23.5%
  EEG spectrum band 9-12 Hz: 13.6%
  EEG spectrum band 12-16 Hz: 14.6%
[4]; [8]
  EEG power (qEEG of neocortical activity), 15″: 68 μV/s
  EEG power (qEEG of neocortical activity), 30″: 120 μV/s
  EEG power (qEEG of neocortical activity), 45″: 127 μV/s
  EEG power (qEEG of neocortical activity), 60″: 115 μV/s
  EEG power (qEEG of neocortical activity), 75″: 129.5 μV/s
  EEG power (qEEG of neocortical activity), 90″: 117 μV/s
  EEG power (qEEG of neocortical activity), 105″: 132.5 μV/s
  EEG power (qEEG of neocortical activity), 120″: 18.5 μV/s
  EEG power (qEEG of neocortical activity), 135″: 135 μV/s
[4]; rats, THA 5 mg/Kg i.p. 30 min before 15 μmol i.p.
  EEG effect with tacrine given 30 min before: long-lasting EEG desynchronization and significant decrease in EEG spectrum total power
[4]; rats, before i.p. treatment
  EEG power (qEEG of neocortical activity), Baseline: 112.5 μV/s
